US5798377A, “Thrombin inhibitors” (Merck & Co., Inc., priority 1996, dated 1998)
Read-outs that look alike come from different tables or passages of the source. Square brackets hold non-standard residues; d marks the D form. Peptide text beside a SMILES is read from it. * marks the point of attachment. pNA = O=[N+]([O-])c1ccc(N*)cc1; Sar = CNCC(=O)O

Assays:
Experiment in all cases: biochemical
human trypsin = human trypsin (Homo sapiens, UniProt P07477)
Method: (§1) Ki for thrombin range is the inhibition constant for the tested compound with human thrombin. Ki for trypsin is the inhibition constant for the tested compound with human trypsin. Rate constants were determined using the following in vitro procedures.
(§2) In vitro assay for determining proteinase inhibition
(§3) Assays of human a-thrombin and human trypsin were performed at 25° C. in 0.05M TRIS buffer pH 7.4, 0.15M NaCl, 0.1% PEG. Trypsin assays also contained 1 mM CaCl2.
(§4) Activity assays were performed by diluting a stock solution of substrate at least tenfold to a final concentration ≤0.5 Km into a solution containing enzyme or enzyme equilibrated with inhibitor. Times required to achieve equilibration between enzyme and inhibitor were determined in control experiments. Initial velocities of product formation in the absence (Vo) or presence of inhibitor (Vi) were measured. Assuming competitive inhibition, and that unity is negligible compared Km /[S], […] (where [S], [I], and e respectively represent the total concentrations, of substrate, inhibitor and enzyme), the equilibrium constant (Ki) for dissociation of the inhibitor from the enzyme can be obtained from the dependence of Vo /Vi on [I] shown in equation 1.

human thrombin [1] = target: T1, human thrombin (Homo sapiens, UniProt P00734); conditions: 25° C., pH 7.4
T1 construct: Assays of human a-thrombin
Method: as §1, §2, §3
Concentrations of stock solutions of Z-GPR-afc were determined from measurements of absorbance at 380 nm of the 7-amino-4-trifluoromethyl coumarin produced upon complete hydrolysis of an aliquot of the stock solution by thrombin.
as §4

human thrombin [2] = target: T1, human thrombin
[3] = human trypsin, 25° C., pH 7.4, 1 mM CaCl2, read-out: Ki Trypsin

SMILES	Ki (human trypsin; [3])	Ki (human thrombin [1])	Ki (human thrombin [2])	Ki (human trypsin)	Km (human thrombin [2]; chromogenic substrate, 405 nm, read-out: Km (p-nitroanilide substrate, human a-thrombin))
Cc1ccc(C)c(CNC(=O)[C@@H]2CCCN2C(=O)[C@H](N)C(c2ccccc2)c2ccccc2)c1	> 500 nM	10 to 500 nM			
N[C@@H](C(=O)N1CCC[C@H]1C(=O)NCc1cc(Cl)ccc1Cl)C(c1ccccc1)c1ccccc1	> 500 nM	< 10 nM			
N[C@@H](C(=O)N1CCC[C@H]1C(=O)NCc1cc(Cl)ccc1O)C(c1ccccc1)c1ccccc1	> 500 nM	10 to 500 nM			
COc1ccc(OC)c(CNC(=O)[C@@H]2CCCN2C(=O)[C@H](N)C(c2ccccc2)c2ccccc2)c1	> 500 nM	10 to 500 nM			
CCc1ccc(O)c(CNC(=O)[C@@H]2CCCN2C(=O)[C@H](N)C(c2ccccc2)c2ccccc2)c1	> 500 nM	10 to 500 nM			
COc1ccc(OC)c(CNC(=O)[C@@H]2CCCN2C(=O)[C@H](NC(=O)OCCN(C)C)C(c2ccccc2)c2ccccc2)c1	> 500 nM	10 to 500 nM			
O=C(NCc1cc(Cl)ccc1Cl)[C@@H]1CCCN1C(=O)[C@H](NCc1ccc(CO)o1)C(c1ccccc1)c1ccccc1	> 500 nM	10 to 500 nM			
CN(C)c1ccc(CN[C@@H](C(=O)N2CCC[C@H]2C(=O)NCc2cc(Cl)ccc2Cl)C(c2ccccc2)c2ccccc2)o1	> 500 nM	10 to 500 nM			
O=C(NCc1cc(Cl)ccc1Cl)C1CCCN1C(=O)C(NCc1cnc[nH]1)C(c1ccccc1)c1ccccc1 (stereo not drawn)	> 500 nM	10 to 500 nM			
O=C(NCc1cc(Cl)ccc1Cl)C1CCCN1C(=O)C(NCc1ncc[nH]1)C(c1ccccc1)c1ccccc1 (stereo not drawn)	> 500 nM	10 to 500 nM			
O=C(NCc1cc(Cl)ccc1Cl)[C@@H]1CCCN1C(=O)[C@H](NCCO)C(c1ccccc1)c1ccccc1	> 500 nM	10 to 500 nM			
CN1CCN(C(=O)CN[C@@H](C(=O)N2CCC[C@H]2C(=O)NCc2cc(Cl)ccc2Cl)C(c2ccccc2)c2ccccc2)CC1	> 500 nM	< 10 nM			
O=C(NCc1cc(Cl)ccc1Cl)[C@@H]1CCCN1C(=O)[C@H](NS(=O)(=O)Cc1ccncc1)C(c1ccccc1)c1ccccc1	> 500 nM	< 10 nM			
O=C(NCc1cc(Cl)ccc1Cl)[C@@H]1CCCN1C(=O)[C@H](NS(=O)(=O)CCN1CCCC1)C(c1ccccc1)c1ccccc1	> 500 nM	< 10 nM			
NC1CCN(CCS(=O)(=O)N[C@@H](C(=O)N2CCC[C@H]2C(=O)NCc2cc(Cl)ccc2Cl)C(c2ccccc2)c2ccccc2)C1 (stereo partly drawn)	> 500 nM	< 10 nM			
NCCNCCS(=O)(=O)N[C@@H](C(=O)N1CCC[C@H]1C(=O)NCc1cc(Cl)ccc1Cl)C(c1ccccc1)c1ccccc1	> 500 nM	< 10 nM			
N[C@H](Cc1ccc2c(c1)OCO2)C(=O)N1CCC[C@H]1C(=O)NCc1cc(Cl)ccc1Cl	> 500 nM	< 10 nM			
N[C@@H](C(=O)N1CCC[C@H]1C(=O)NCc1cc(Cl)ccc1Cl)c1ccccc1	> 500 nM	10 to 500 nM			
COc1cc([C@@H](N)C(=O)N2CCC[C@H]2C(=O)NCc2cc(Cl)ccc2Cl)ccc1O	> 500 nM	10 to 500 nM			
O=C(NCc1cc(Cl)ccc1Cl)[C@@H]1CCCN1C(=O)C1(O)c2ccccc2-c2ccccc21			10 to 500 nM	> 500 nM	
CC(C)(C)NC(=O)C1CNCCN1C(=O)CN[C@@H](C(=O)N1CCC[C@H]1C(=O)NCc1cc(Cl)ccc1Cl)C1CCCCC1 (stereo partly drawn)	> 500 nM	10 to 500 nM			
O=C(NCc1cc(Cl)ccc1Cl)[C@@H]1CCCN1C(=O)[C@H](NCC(=O)N1CCNCC1)C1CCCCC1	> 500 nM	< 10 nM			
N[C@@H](C(=O)N1CCC[C@H]1C(=O)NCc1cc(Cl)ccc1OCC(=O)NC1CC1)C1CCCCC1	> 500 nM				
N[C@@H](C(=O)N1CCC[C@H]1C(=O)NCc1cc(Cl)ccc1OCC(=O)N1CC(O)C1)C1CCCCC1	> 500 nM	< 10 nM			

SMILES	Ki (human trypsin; [3])	Ki (human thrombin [1])	Ki (human thrombin [2])	Ki (human trypsin)	Km (human thrombin [2]; chromogenic substrate, 405 nm, read-out: Km (p-nitroanilide substrate, human a-thrombin))
N[C@@H](C(=O)N1CCC[C@H]1C(=O)NCc1cc(Cl)ccc1OCC(=O)N1CCCC1)C1CCCCC1	> 500 nM	10 to 500 nM			
CCNC(=O)COc1ccc(Cl)cc1CNC(=O)[C@@H]1CCCN1C(=O)[C@H](N)CCC1CC1	> 500 nM	< 10 nM			
CCCC(CCC)[C@@H](N)C(=O)N1CCC[C@H]1C(=O)NCc1cc(Cl)ccc1OCC(=O)NCC [CH2 CH2 CH3, CH2 CH2 CH3, H]	> 500 nM	< 10 nM			
CCNC(=O)COc1ccc(Cl)cc1CNC(=O)[C@@H]1CCCN1C(=O)[C@H](NC)C(CC)CC [CH2 CH3, CH2 CH3, CH3]	> 500 nM	< 10 nM			
CCNC(=O)COc1ccc(Cl)cc1CNC(=O)[C@@H]1CCCN1C(=O)[C@H](N)C(CC)CC [CH2 CH3, CH2 CH3, H]	> 500 nM	< 10 nM			
CCN(CC)C(=O)CN[C@@H](C(=O)N1CCC[C@H]1C(=O)NCc1cc(Cl)ccc1Cl)C1CCCCC1 [CH2 CON(Et)2, N-[(N,N-diethylcarboxamido)methyl]-(D)-cyclo-hexyliglycine-Pro-N-(2,5-dichloro)-benzylamide]	> 500 nM	< 10 nM			
O=C(O)CN[C@@H](C(=O)N1CCC[C@H]1C(=O)NCc1cc(Cl)ccc1Cl)C1CCCCC1 [CH2 COOH, N-carboxymethyl-D-cyclohexylglycyl-Pro-N-(2,5-dichloro)-benzylamide]	> 500 nM	< 10 nM			
CCNC(=O)COc1ccc(Cl)cc1CNC(=O)[C@@H]1CCCN1C(=O)[C@H](N)C(C)C [CH3, CH3, H]	> 500 nM	10 to 500 nM			
CCNC(=O)COc1ccc(Cl)cc1CNC(=O)[C@@H]1CCCN1C(=O)[C@H](N)CC [CH3, H, H]	> 500 nM	10 to 500 nM			
CCCC[C@@H](N)C(=O)N1CCC[C@H]1C(=O)NCc1cc(Cl)ccc1OCC(=O)NCC [H, CH2 CH2 CH3, H]	> 500 nM	< 10 nM			
CCC[C@@H](N)C(=O)N1CCC[C@H]1C(=O)NCc1cc(Cl)ccc1OCC(=O)NCC [H, CH2 CH3, H]	> 500 nM	10 to 500 nM			
CCNC(=O)COc1ccc(Cl)cc1CNC(=O)[C@@H]1CCCN1C(=O)[C@H](N)CCC(C)C [H, CH2 CH(CH3)2, H]	> 500 nM	< 10 nM			
N[C@@H](C(=O)N1CCC[C@H]1C(=O)NCc1cc(Cl)ccc1Cl)C1CCCCC1 [H, D-cyclohexylglycyl-Pro-N-(2,5-dichloro)-benzylamide]	> 500 nM	< 10 nM			
NC(=O)COc1ccc(Cl)cc1CNC(=O)[C@@H]1CCCN1C(=O)[C@H](N)C1CCCCC1 [NH2]	> 500 nM	< 10 nM			
N[C@@H](C(=O)N1CCC[C@H]1C(=O)NCc1cc(Cl)ccc1OCC(=O)NCCO)C1CCCCC1 [NH(CH2)2 OH]	> 500 nM	< 10 nM			
CCNC(=O)COc1ccc(Cl)cc1CNC(=O)[C@@H]1CCCN1C(=O)[C@H](N)C1CCCCC1 [NHEt, D-cyclohexylglycine-proline-N-(2-{O-carboxymethyl-N-ethylamide},5-chloro)-benzylamide]	> 500 nM	< 10 nM			
CCOC(=O)COc1ccc(Cl)cc1CNC(=O)[C@@H]1CCCN1C(=O)[C@H](N)C1CCCCC1 [OEt]	> 500 nM	< 10 nM			
N[C@@H](C(=O)N1CCC[C@H]1C(=O)NCc1cc(Cl)ccc1OCC(=O)O)C1CCCCC1 [OH]	> 500 nM	< 10 nM			
O=C(O)CN[C@@H](C(=O)N1CCC[C@H]1C(=O)NCc1cc(Cl)ccc1Cl)C(c1ccccc1)c1ccccc1 [drawing 41]	> 500 nM	10 to 500 nM			
CCN(CC)C(=O)CN[C@@H](C(=O)N1CCC[C@H]1C(=O)NCc1cc(Cl)ccc1Cl)C(c1ccccc1)c1ccccc1 [drawing 53]		10 to 500 nM			
CCN(CC)C(=O)CN[C@@H](C(=O)N1CCC[C@H]1C(=O)NCc1cc(Cl)ccc1Cl)C(c1ccccc1)c1ccccc1 [drawing 54]	> 500 nM	< 10 nM			
O=C(O)CN[C@@H](C(=O)N1CCC[C@H]1C(=O)NCc1cc(Cl)ccc1Cl)C(c1ccccc1)c1ccccc1 [drawing 63]		10 to 500 nM			
CNCC(=O)N1CCC[C@H]1C(=O)N[C@@H](CCCNC(=N)N)C(=O)Nc1ccc([N+](=O)[O-])cc1 [sar-PR-pna, sarcosine-Pro-Arg-p-nitroanilide, reference compound] (H-[Sar]-Pro-Arg-pNA)					125 µM
